Columns and labels:
fibroblast culture = experiment: Production of mucopolysaccharides from fibroblast culture in vitro; type: cell-based; settings: in vitro culture of collagen tissue
Procedure: a. Tests in vitro: These tests consist of the cultivation in vitro, i.e., outside the organism, of tissue of the same embriological origin in relation to the osteoarticular. Upon the growth of this tissue there is then measured the activities of the various drugs. The units of measurement of these activities is the production of glucosaminoglicanes (mucopolysaccharides measured by the turbidimetric method).
The compounds which form the subject of this invention were evaluated according to this test and compared with known anti-inflammatories.

[1] = Osteolathyrism in the rabbit (aminoacetonitrile); type: in vivo; settings: rabbit
Procedure: B. Tests in vivo: Osteolathyrism in the rabbit.
Osteolathrism consists of inducing into young rabbits a dystrophy of the bone joint system, administering every day aminoacetonitrile by i.p. means, in the quantity of 100 mg/kg of body weight. With this treatment, in about 30 days, the following changes are shown in the rabbit:
Loss of weight (related to the checks physiologically treated), ptosis of the auricular pavilion, loss of fur, deformation of the front and rear limbs, deterioration of the general condition.
All this takes place because the aminoacetonitrile is a collagen tissue poison which changes the biochemical composition of the joint cartilages and the bones.
An evaluation of the therapeutic activity can be made either by biochemical evaluation, i.e. by measuring the quantity of aminosugars in these tissues, or by considering only the general symptoms, which are proportional to the diminution of the aminosugars.
In Table 5 this latter evaluation is reported, in which every symptom was evaluated by allotting it a number from 0 to 4, 4 indicating the maximum amount of damage and 0 indicating no damage.
On Table 5 there are given the results of treatment evaluated on the 25th day, comparing the groups treated only with a physiological solution, only with aminoacetonitrile, with aminoacetonitrile and CR 604, with aminoacetonitrile and Indometacin in the prescribed doses.
Each group consisted of 8 animals.

[2] = Pellets-induced granuloma test (cotton pellets); type: in vivo, rat; settings: rat
Procedure: 1b. Pellets-induced granuloma test:
Another important test for the evaluation of an anti-inflammatory is that of cotton pellets. This consists of planting a sterile cotton pellet under the rat's back skin.
This pellet is left in situ for a week while the animals are treated daily with various doses of the drug being examined. Evaluation is effected by weighing the pellets taken at the given time and dried, comparing the weight of those of the treated animals with the checks.

uropepsinogene = type: in vivo, human; settings: in vivo
Procedure: (§1) Thus for example comparing CR 604 administered in capsules of 75 mg (6 per day), with Indometacin in capsules of 25 mg (6 per day), i.e. in approximately equimolecular doses on a group of 60 subjects treated (30 with CR 604 and 30 with Indometacin, one notes that (see Table 7):
Gastric secretion of pepsin is increased by agents which irritate and damage the gastric mucosa.

[3] = Tolerance in animals, subacute and chronic; type: in vivo; settings: up to 6 months administration to animals, quantities greater than those recommended for human beings
Description: For these substances, and particularly for CR 604, tolerance tests were made, subacute and chronic, by up to 6 months administration to the animals.

urinary calcium = type: in vivo, human; settings: in vivo
Procedure: as §1
c. […] Excretion of calcium is related to the destruction of the fibrils of the proteic bone matrix which thus also loses the calcium deposited upon it.
The administration of known anti-inflammatories brings about the lysis of these fibrils with loss of calcium.

[4] = Irritant and ulceroid (gastrolesive) activity on the gastric mucosa; settings: rat, in vivo, po
Procedure: 4. Irritant and ulceroid activity on the gastric mucosa
The experimental evaluation of this activity was made on rats, by the method here reported:
The compound is administered orally to rats which have fasted for 12 hours, the animals being killed 4 hours after the administration.
Regarded as positive, i.e. with stomach damage, are those animals which have at least one haemorrhage point on the stomach wall.
By ED50 there is meant that dose of the drug which can […] in 50% of the animals treated, the formation of these haemorrhages.
In Table 6 there are compared CR 604 and Indometacin, since the latter is, amongst them all, the nearest to the anti-inflammatory activity values of CR 604.

CCCN(CCC)C(=O)C(CCC(=O)OCCCN1CCN(CCOC(=O)Cc2c(C)n(C(=O)c3ccc(Cl)cc3)c3ccc(OC)cc23)CC1)NC(=O)c1ccccc1 (racemic) [CR 604, N'-2-[1-(p-chlorobenzoyl)-5-methoxy-2-methyl-3-indoleacetoxy]ethyl-N-3-(N-benzoyl-N', N'-di-n-propyl-DL-isoglutaminoyl)-oxypropyl-piperazine]
effect on growth and production of mucopolysaccharides, in words (fibroblast culture): does not harm
effect on aminoacetonitrile symptoms, in words [1]: greatly modifies these toxic symptoms
anti-inflammatory activity (granuloma test), in words [2]: high anti-inflammatory activity
uropepsinogene in urine, in words (uropepsinogene): diminishes in the urine
tolerance, subacute and chronic [3]: well tolerated without any special anatomical or functional lesion
destruction (lysis) of fibrils of proteic bone matrix, in words (urinary calcium): does not induce this destruction or reduces it
excretion of urinary calcium, in words (urinary calcium): reduction in the excretion of urinary calcium
gastrolesive dose, in words [4]: so high as to be of no practical importance, being roughly equal to a fatal dose

From US3985878A, “Anti-inflammatory and antirheumatic compounds and preparation” (priority 1974, dated 1976)
